Here are results for 21 molecules from patent publication US3981814A, “Bacteriostatic substituted benzanilide compositions and methods for their use” (Givaudan Corporation, priority 1975, dated 1976).

One may read the LD50 as the dose expected to kill half of the subjects tested. A lower LD50 goes with a more toxic substance.

≈ marks a conversion by molar mass, not a printed value. Some results are limits rather than exact numbers.

The first data set deals with Staphylococcus aureus. The data set is described as follows: In vitro soap bacteriostatic test (agar dilution, spot inoculation, 35°, 48 hours). It counts as cell-based. Particulars: Staphylococcus aureus, without soap, read-out: Compound Activity Without Soap: minimum concentration where S. aureus growth is completely inhibited. Here is the method: The antibacterial properties of the compounds prepared in Examples 1 - 14 were tested in soap. The in vitro soap bacteriostatic tests were conducted as follows: The compound is dissolved in a suitable solvent, usually dimethylformamide, to give a 6% solution. One-half ml. aliquot was added to 100 ml. of 3% solution of bar soap stock solution. The solid soap used was a neutral white toilet soap of the "LUX" type. The fatty acids in this soap were of the following composition: This yields an aqueous soap solution containing 30,000 mcg./ml. soap and 300 mcg./ml. compound. The soap/compound ratio in the latter is 100/l. A two-fold serial dilution series is prepared with this solution using sterile distilled water in test tubes such that the final volume in each tube is 2.0 ml. To each test tube is added 28 ml. of molten Dextrose Trypticase Extract Agar (B.B.L.). The tube contents were poured into sterile Petri plates and allowed to harden. The highest final concentration of compound in the serial dilution series is 20 mcg./ml. Plates were spot inoculated with a broth culture of Staphylococcus aureus and incubated at 35° for 48 hours. The lowest concentration completely inhibiting growth of the test organism, in mcg./ml. is recorded as the bacteriostatic concentration of the compound. Tests in the absence of soap are made in a similar manner except that all dilutions are made in solvent. The final concentration in the agar should not be greater than 5%. The results of these tests with the compounds of the present invention as compared with compounds having chemical structures closely related to the compounds of the present invention (designated by the symbol "C") are set forth in the Table. Column 1 contains the data as to the activity of the test solution without soap; column 2 refers to tests in which the ratio of soap to compound is 100:1. […] Growth is observed at the next lower concentration.
Regarding `O=C(Nc1ccc(Br)c(C(F)(F)F)c1)c1ccc(Br)cc1` [Compound 13, 4,4'-dibromo-α,α,α-trifluoro-m-benzotoluidide], the MIC stood at 1.25 µg/mL (≈ 2.95 µM).

On to `O=C(Nc1cc(C(F)(F)F)cc(C(F)(F)F)c1)c1ccc(Cl)cc1` [Compound 19, 4-chloro-3',5'-di(trifluoromethyl)-benzanilide], for which the MIC is 0.625 µg/mL (≈ 1.7 µM).

For `O=C(Nc1cc(C(F)(F)F)cc(C(F)(F)F)c1)c1ccc(Br)cc1` [Compound 20, 4-bromo-α,α,α,α',α',α' -hexafluorobenzo-3',5'-xylidide], the MIC worked out at 0.312 µg/mL (≈ 0.757 µM).

As for `O=C(Nc1ccc(Cl)cc1C(F)(F)F)c1ccccc1Cl` [Compound C22], the MIC is above 10 µg/mL.

Turning to `N#CSc1ccc(NC(=O)c2ccc(Cl)cc2)cc1C(F)(F)F` [Compound C23], the MIC was above 20 µg/mL.

Turning to `N#CSc1ccc(NC(=O)c2ccc(Cl)c(Cl)c2)cc1C(F)(F)F` [Compound C24], the MIC was above 10 µg/mL.

Take `O=C(Nc1cc(C(F)(F)F)cc(C(F)(F)F)c1)c1cccc(Cl)c1` [Compound C25]: the MIC is above 20 µg/mL.

`O=C(Nc1cc(C(F)(F)F)cc(C(F)(F)F)c1)c1ccccc1Cl` [Compound C26]: the MIC is above 20 µg/mL.

Consider `O=C(Nc1cc(C(F)(F)F)cc(C(F)(F)F)c1)c1ccc(F)cc1` [Compound C27], for which the MIC was above 20 µg/mL.

For `O=C(Nc1cc(C(F)(F)F)cc(C(F)(F)F)c1)c1cccc(C(F)(F)F)c1` [Compound C28], the MIC is above 10 µg/mL.

With `O=C(Nc1cc(C(F)(F)F)cc(C(F)(F)F)c1)c1cccc(Br)c1` [Compound C29], the MIC is above 10 µg/mL.

As for `O=C(Nc1cccc(Cl)c1)c1ccc(Cl)cc1` [Compound C30], the MIC is above 20 µg/mL.

`O=C(Nc1ccc(Cl)c(Cl)c1)c1ccc(Cl)cc1` [Compound C31]: the MIC is above 20 µg/mL.

Take `O=C(Nc1cc(Cl)cc(Cl)c1)c1ccc(Cl)cc1` [Compound C32]: the MIC is above 20 µg/mL.

Regarding `O=C(Nc1ccc(Cl)cc1)c1ccc(Cl)c(Cl)c1` [Compound C33], the MIC is above 10 µg/mL.

In the case of `O=C(Nc1cccc(Cl)c1)c1ccc(Cl)c(Cl)c1` [Compound C34], the MIC is above 20 µg/mL.

For the molecule `O=C(Nc1ccc(Cl)c(Cl)c1)c1ccc(Cl)c(Cl)c1` [Compound C35], the MIC is above 10 µg/mL.

Take `O=C(Nc1cc(Cl)cc(Cl)c1)c1ccc(Cl)c(Cl)c1` [Compound C36]: the MIC was above 10 µg/mL.

With `O=C(Nc1ccc(Cl)c(Cl)c1)c1ccc(Br)cc1` [Compound C37], the MIC came out at 10 µg/mL (≈ 29 µM).

Consider `O=C(Nc1ccc(Cl)c(Cl)c1)c1ccc(C(F)(F)F)cc1` [Compound C38], for which the MIC was above 20 µg/mL.

As to `CC(C)(C)c1ccc(C(=O)Nc2cccc(C(F)(F)F)c2)cc1` [Compound C39], the MIC was above 20 µg/mL.

The data set is the same for the next values; noted with them: with soap, ratio of soap to compound 100:1.
Regarding `O=C(Nc1ccc(Br)c(C(F)(F)F)c1)c1ccc(Br)cc1` [Compound 13, 4,4'-dibromo-α,α,α-trifluoro-m-benzotoluidide], the “Compound Activity With Soap: minimum concentration where S. aureus growth is completely inhibited” value was 0.312 µg/mL.

As for `O=C(Nc1cc(C(F)(F)F)cc(C(F)(F)F)c1)c1ccc(Cl)cc1` [Compound 19, 4-chloro-3',5'-di(trifluoromethyl)-benzanilide], the “Compound Activity With Soap: minimum concentration where S. aureus growth is completely inhibited” value stood at 0.312 µg/mL.

For the molecule `O=C(Nc1cc(C(F)(F)F)cc(C(F)(F)F)c1)c1ccc(Br)cc1` [Compound 20, 4-bromo-α,α,α,α',α',α' -hexafluorobenzo-3',5'-xylidide], the “Compound Activity With Soap: minimum concentration where S. aureus growth is completely inhibited” value was 0.312 µg/mL.

Consider `O=C(Nc1ccc(Cl)cc1C(F)(F)F)c1ccccc1Cl` [Compound C22], for which the “Compound Activity With Soap: minimum concentration where S. aureus growth is completely inhibited” value is “B (Inactive at 10 mcg./ml. (highest concentration tested))”.

With `N#CSc1ccc(NC(=O)c2ccc(Cl)cc2)cc1C(F)(F)F` [Compound C23], the “Compound Activity With Soap: minimum concentration where S. aureus growth is completely inhibited” value was 5.0 µg/mL.

Take `N#CSc1ccc(NC(=O)c2ccc(Cl)c(Cl)c2)cc1C(F)(F)F` [Compound C24]: the “Compound Activity With Soap: minimum concentration where S. aureus growth is completely inhibited” value is listed as “B (Inactive at 10 mcg./ml. (highest concentration tested))”.

With `O=C(Nc1cc(C(F)(F)F)cc(C(F)(F)F)c1)c1cccc(Cl)c1` [Compound C25], the “Compound Activity With Soap: minimum concentration where S. aureus growth is completely inhibited” value is 10.0 µg/mL.

Regarding `O=C(Nc1cc(C(F)(F)F)cc(C(F)(F)F)c1)c1ccccc1Cl` [Compound C26], the “Compound Activity With Soap: minimum concentration where S. aureus growth is completely inhibited” value came out at 10.0 µg/mL.

For `O=C(Nc1cc(C(F)(F)F)cc(C(F)(F)F)c1)c1ccc(F)cc1` [Compound C27], the “Compound Activity With Soap: minimum concentration where S. aureus growth is completely inhibited” value worked out at 10.0 µg/mL.

As to `O=C(Nc1cc(C(F)(F)F)cc(C(F)(F)F)c1)c1cccc(C(F)(F)F)c1` [Compound C28], the “Compound Activity With Soap: minimum concentration where S. aureus growth is completely inhibited” value is on record as “B (Inactive at 10 mcg./ml. (highest concentration tested))”.

`O=C(Nc1cc(C(F)(F)F)cc(C(F)(F)F)c1)c1cccc(Br)c1` [Compound C29]: the “Compound Activity With Soap: minimum concentration where S. aureus growth is completely inhibited” value is “B (Inactive at 10 mcg./ml. (highest concentration tested))”.

Take `O=C(Nc1cccc(Cl)c1)c1ccc(Cl)cc1` [Compound C30]: the “Compound Activity With Soap: minimum concentration where S. aureus growth is completely inhibited” value came to 5.0 µg/mL.

For the molecule `O=C(Nc1ccc(Cl)c(Cl)c1)c1ccc(Cl)cc1` [Compound C31], the “Compound Activity With Soap: minimum concentration where S. aureus growth is completely inhibited” value is 10.0 µg/mL.

For the molecule `O=C(Nc1cc(Cl)cc(Cl)c1)c1ccc(Cl)cc1` [Compound C32], the “Compound Activity With Soap: minimum concentration where S. aureus growth is completely inhibited” value came to 10.0 µg/mL.

For `O=C(Nc1ccc(Cl)cc1)c1ccc(Cl)c(Cl)c1` [Compound C33], the “Compound Activity With Soap: minimum concentration where S. aureus growth is completely inhibited” value is “B (Inactive at 10 mcg./ml. (highest concentration tested))”.

With `O=C(Nc1cccc(Cl)c1)c1ccc(Cl)c(Cl)c1` [Compound C34], the “Compound Activity With Soap: minimum concentration where S. aureus growth is completely inhibited” value was “A (Inactive at 20 mcg./ml. (highest concentration tested))”.

Regarding `O=C(Nc1ccc(Cl)c(Cl)c1)c1ccc(Cl)c(Cl)c1` [Compound C35], the “Compound Activity With Soap: minimum concentration where S. aureus growth is completely inhibited” value is reported as “B (Inactive at 10 mcg./ml. (highest concentration tested))”.

Consider `O=C(Nc1cc(Cl)cc(Cl)c1)c1ccc(Cl)c(Cl)c1` [Compound C36], for which the “Compound Activity With Soap: minimum concentration where S. aureus growth is completely inhibited” value was “B (Inactive at 10 mcg./ml. (highest concentration tested))”.

On to `O=C(Nc1ccc(Cl)c(Cl)c1)c1ccc(Br)cc1` [Compound C37], for which the “Compound Activity With Soap: minimum concentration where S. aureus growth is completely inhibited” value turned out to be 20.0 µg/mL.

Regarding `O=C(Nc1ccc(Cl)c(Cl)c1)c1ccc(C(F)(F)F)cc1` [Compound C38], the “Compound Activity With Soap: minimum concentration where S. aureus growth is completely inhibited” value is 10.0 µg/mL.

With `CC(C)(C)c1ccc(C(=O)Nc2cccc(C(F)(F)F)c2)cc1` [Compound C39], the “Compound Activity With Soap: minimum concentration where S. aureus growth is completely inhibited” value was found to be 5.0 µg/mL.

System in another data set: not listed separately
Briefly: in vivo. The following applies: rat, determined in rats, oral toxicity. From the text: For example, 4-chloro-3', 5'-di(trifluoromethyl)-benzanilide has an LD50 of […], determined in rats.
`O=C(Nc1cc(C(F)(F)F)cc(C(F)(F)F)c1)c1ccc(Cl)cc1` [Compound 19, 4-chloro-3',5'-di(trifluoromethyl)-benzanilide] yielded an LD50 of 6000 mg/kg.

System in another data set: not listed separately
Briefly: Solubility in alcohol and other solvents.
Conditions: not given
Format: physicochemical.
In the case of `O=C(Nc1ccc(Br)c(C(F)(F)F)c1)c1ccc(Br)cc1` [Compound 13, 4,4'-dibromo-α,α,α-trifluoro-m-benzotoluidide], the “solubility in alcohol solvents” value is listed as “soluble or fairly soluble”.

Consider `O=C(Nc1cc(C(F)(F)F)cc(C(F)(F)F)c1)c1ccc(Cl)cc1` [Compound 19, 4-chloro-3',5'-di(trifluoromethyl)-benzanilide], for which the “solubility in alcohol solvents” value is “soluble or fairly soluble”.

`O=C(Nc1cc(C(F)(F)F)cc(C(F)(F)F)c1)c1ccc(Br)cc1` [Compound 20, 4-bromo-α,α,α,α',α',α' -hexafluorobenzo-3',5'-xylidide]: the “solubility in alcohol solvents” value was “soluble or fairly soluble”.
